Measurements reported in patent publication US6514957B1, “Method of alleviating the violence and stimulating the appetite of stag in the puberty age of the fall and method of promoting the growth of stag's horn” (priority 2001, dated 2003).
Several values for one entry are separate records, joined by “and”; a condition that tells them apart may be missing. Identical values can stand only once. Entries after “also recorded” stand apart in the source; their conditions may differ.

Tests used:
[1] = tested on: stags of elk of which the first horn was cut in the summer; assay: Promoting the growth of the second stag's horn after cutting the first horn; assay type: in vivo; conditions: for Growth and development progress of the second stag's horn: 500 mg (1 mg/kg) injected Oct. 2, 1999 or Oct. 2, 2000
Procedure: To 4 stags of elk, of which the first horn coming up in the spring and growing cut in the summer, each in the weight of 500 kg, 17β-decanoate-4-estrene-3-one 500 mg (effective dose corresponding to 1 mg per 1 kg of the weight of stag: “ANABOLIN FORTE” is the trademark manufactured by Alfasan in Nederland and containing 17β-decanoate-4-estrene-3-one 50 mg in a injection product 1 ml; “ANABOLIN FORTE 10 ml” is the trademark imported by BUM-HAN PHARM. in Korea) was injected-injected.
To 8 stags of elk, each in the weight of 500 kg, of which the first horn coming up in the spring and grown up cuts in the summer, 17β-decanoate-4-estrene-3-one 50 mg, 100 mg, 250 mg, 500 mg, 750 mg, 1,000 mg, 2,500 mg and 5,000 mg (effective doses corresponding to 0.1 mg, 0.2 mg, 0.5 mg, 1.0 mg, 1.5 mg, 2.0 mg, 5.0 mg and 10 mg per 1 kg of the weight of stag: “ANABOLIN FORTE” is the trademark manufactured by Alfasan in Nederland and containing 17β-decanoate-4-estrene-3-one 50 mg in a injection product 1 ml; “ANABOLIN FORTE 1 ml, 2 ml, 5 ml, 10 ml, 15 ml, 20 ml, 50 ml and 100 ml” is the trademark imported by BUM-HAN PHARM. in Korea) were injected-injected.
Example 8 was the same as Example 3, except that Example 8 substituted 17β-cyclohexylpropionate-4-estrene-3-one for 17β-decanoate-4-estrene-3-one.
Example 9 was the same as Example 5, except that Example 9 substituted 17β-cyclohexylpropionate-4-estrene-3-one for 17β-decanoate-4-estrene-3-one.
Example 11 was the same as Example 3, except that Example 9 substituted a compound of 17β-decanoate-4-estrene-3-one and 17β-cyclohexylpropionate-4-estrene-3-one for 17β-decanoate-4-estrene-3-one.

[2] = tested on: stags of elk, violent and anorexia in the puberty age of the fall; assay: Alleviating the violence and stimulating the appetite of stags in the puberty age of the fall; assay type: in vivo
Procedure: To 4 stags of elk, each in the weight of 500 kg, which is violent and anorexia in the puberty age of the fall, 17β-decanoate-4-estrene-3-one 500 mg (effective dose corresponding to 1 mg per 1 kg of the weight of stag: “ANABOLIN FORTE” is the trademark manufactured by Alfasan in Nederland and containing 17β-decanoate-4-estrene-3-one 50 mg in a injection product 1 ml; “ANABOLIN FORTE 10 ml” is the trademark imported by BUM-HAN PHARM. in Korea) was intramuscularly-injected.
To 8 stags of elk, each in the weight of 500 kg, which is violent and anorexia in the puberty age of the fall, 17β-decanoate-4-estrene-3-one 50 mg, 100 mg, 250 mg, 500 mg, 750 mg, 1,000 mg, 2,500 mg and 5,000 mg (effective doses corresponding to 0.1 mg, 0.2 mg, 0.5 mg, 1.0 mg, 1.5 mg, 2.0 mg, 5.0 mg and 10 mg per 1 kg of the weight of stag: “ANABOLIN FORTE” is the trademark manufactured by Alfasan in Nederland and containing 17β-decanoate-4-estrene-3-one 50 mg in a injection product 1 ml; “ANABOLIN FORTE 1 ml, 2 ml, 5 ml, 10 ml, 15 ml, 20 ml, 50 ml and 100 ml” is the trademark imported by BUM-HAN PHARM. in Korea) were injected-injected.
Example 6 was the same as Example 1, except that Example 6 substituted 17β-cyclohexylpropionate-4-estrene-3-one for 17β-decanoate-4-estrene-3-one.
Example 7 was the same as Example 2, except that Example 7 substituted 17β-cyclohexylpropionate-4-estrene-3-one for 17β-decanoate-4-estrene-3-one.
Example 10 was the same as Example 2, except that Example 9 substituted a compound of 17β-decanoate-4-estrene-3-one and 17β-cyclohexylpropionate-4-estrene-3-one for 17β-decanoate-4-estrene-3-one.

[3] = Elk 5, 500 kg, dose 50 mg (0.1 mg/kg) injected
[4] = Elk 6, 500 kg, dose 100 mg (0.2 mg/kg) injected
[5] = Elk 7, 500 kg, dose 250 mg (0.5 mg/kg) injected
[6] = Elk 8, 500 kg, dose 500 mg (1.0 mg/kg) injected
[7] = Elk 9, 500 kg, dose 750 mg (1.5 mg/kg) injected
[8] = Elk 10, 500 kg, dose 1,000 mg (2.0 mg/kg) injected
[9] = Elk 11, 500 kg, dose 2,500 mg (5.0 mg/kg) injected
[10] = Elk 12, 500 kg, dose 5,000 mg (10 mg/kg) injected
[11] = elk stags 500 kg, doses 0.1, 0.2, 0.5, 1.0, 1.5, 2.0, 5.0 and 10 mg per kg

`C[C@]12CC[C@H]3[C@@H](CCC4=CC(=O)CC[C@@H]43)[C@@H]1CC[C@@H]2OC(=O)CCC1CCCCC1` [17β-cyclohexylpropionate-4-estrene-3-one] was tested, and the “test results (growth and production amount of the second stag's horn) compared with 17β-decanoate-4-estrene-3-one” value ([1]; conducted as Example 3: 500 mg (1 mg/kg), elk stags 500 kg) was “the same as those of Example 3”, the “test results (production amount of the second stag's horn by dose) compared with 17β-decanoate-4-estrene-3-one” value ([1]; conducted as Example 5: 50 to 5,000 mg (0.1 to 10 mg/kg), elk stags 500 kg) was “the same as those of Example 5” and the “test results (violence, appetite) compared with 17β-decanoate-4-estrene-3-one” value ([2]; conducted as Example 1: 500 mg (1 mg/kg) intramuscular, elk stags 500 kg) was “the same as those of Example 1”. For the same compound, the “test results (violence, appetite) compared with 17β-decanoate-4-estrene-3-one” value ([2]; conducted as Example 2: 50 to 5,000 mg (0.1 to 10 mg/kg), elk stags 500 kg) was “the same as those of Example 2”.
For `CCCCCCCCCC(=O)O[C@H]1CC[C@H]2[C@@H]3CCC4=CC(=O)CC[C@@H]4[C@H]3CC[C@]12C` [17β-decanoate-4-estrene-3-one], the “Growth and development progress of the second stag's horn” value (shortened to “Growth and development progress”) ([1]; 0 days after administration, individual Elk 21, 22 (500 kg)) was 0 cm, the “production amount of the second stag's horn relative to that of the first stag's horn” value ([1]; 1 mg/kg injected, elk 500 kg) was “about 80%” and the “time from administration until the second stag's horn comes up” value ([1]; 1 mg/kg intramuscularly injected, elk 500 kg) was 30 days. For the same compound, the “growth rate of the second stag's horn” value ([1]; 1 mg/kg intramuscularly injected, elk 500 kg, after the horn came up) was 3 cm per a day, the “Production amount of stag's horn: the second horn collected in the next spring” value (“Production amount of stag's horn” for short) ([1]; 500 mg (1 mg/kg) injected 1999.10.2 or 2000.10.2, individual Elk 21, 22 (500 kg)) was 12 kg (2×) and 9.6 kg (2×) and the “Growth and development progress” value ([1]; 10 days after administration, individual Elk 21, 22 (500 kg)) was 0 cm. The “Growth and development progress” value ([1]; 20 days after administration, individual Elk 21, 22 (500 kg)) was 0 cm, the “Growth and development progress” value ([1]; 30 days after administration, individual Elk 21, 22 (500 kg)) was 0.5 cm and the “Growth and development progress” value ([1]; 40 days after administration, individual Elk 21, 22 (500 kg)) was “approximately 30 cm and 30 cm”. The “Growth and development progress” value ([1]; 50 days after administration, individual Elk 21, 22 (500 kg)) was 40 cm, the “Growth and development progress” value ([1]; 60 days after administration, individual Elk 21, 22 (500 kg)) was 60 cm and the “Growth and development progress” value ([1]; 70 days after administration, individual Elk 21, 22 (500 kg)) was 80 cm. The “Growth and development progress” value ([1]; 80 days after administration, individual Elk 21, 22 (500 kg)) was 90 cm and 100 cm (3×), the “Growth and development progress” value ([1]; 90 days after administration, individual Elk 21, 22 (500 kg)) was 100 cm and 110 cm (2×) and 120 cm and the “Growth and development progress” value ([1]; 100 days after administration, individual Elk 21, 22 (500 kg)) was 100 cm and 110 cm (2×) and 120 cm. For the same compound, the “Production amount of stag's horn” value ([1]; Elk 31, 500 kg, dose 50 mg (0.1 mg/kg), first horn 15 kg) was 5 kg, the “Production amount of stag's horn” value ([1]; Elk 32, 500 kg, dose 100 mg (0.2 mg/kg), first horn 15 kg) was 5 kg and the “Production amount of stag's horn” value ([1]; Elk 33, 500 kg, dose 250 mg (0.5 mg/kg), first horn 15 kg) was 12 kg. For the same compound, the “Production amount of stag's horn” value ([1]; Elk 34, 500 kg, dose 500 mg (1.0 mg/kg), first horn 15 kg) was 12 kg, the “Production amount of stag's horn” value ([1]; Elk 35, 500 kg, dose 750 mg (1.5 mg/kg), first horn 15 kg) was 12 kg and the “Production amount of stag's horn” value ([1]; Elk 36, 500 kg, dose 1,000 mg (2.0 mg/kg), first horn 15 kg) was 12 kg. The “Production amount of stag's horn” value ([1]; Elk 37, 500 kg, dose 2,500 mg (5.0 mg/kg), first horn 15 kg) was 5 kg, the “Production amount of stag's horn” value ([1]; Elk 38, 500 kg, dose 5,000 mg (10 mg/kg), first horn 15 kg) was 5 kg and the “growth of stag's horn” value ([1]; elk 500 kg, doses 0.1, 0.2, 0.5, 1.0, 1.5, 2.0, 5.0 and 10 mg per kg) was “promoted”. For the same compound, the “Status After: appetite” value [2, 3] was “Stimulating appetite”, the “Status After: violence” value [2, 3] was “Alleviating violence” and the “Status After: appetite” value [2, 4] was “Stimulating appetite”. The “Status After: violence” value [2, 4] was “Alleviating violence”, the “Status After: appetite” value [2, 5] was “Stimulating appetite” and the “Status After: violence” value [2, 5] was “Alleviating violence”. For the same compound, the “Status After: appetite” value [2, 6] was “Stimulating appetite”, the “Status After: violence” value [2, 6] was “Alleviating violence” and the “Status After: appetite” value [2, 7] was “Stimulating appetite”. The “Status After: violence” value [2, 7] was “Alleviating violence”, the “Status After: appetite” value [2, 8] was “Stimulating appetite” and the “Status After: violence” value [2, 8] was “Alleviating violence”. For the same compound, the “Status After: appetite” value [2, 9] was “Stimulating appetite”, the “Status After: violence” value [2, 9] was “Alleviating violence” and the “Status After: appetite” value [2, 10] was “Stimulating appetite”. For the same compound, the “Status After: violence” value [2, 10] was “Alleviating violence”, the “Status After: appetite” value ([2]; elk stags 500 kg, anorexia before, 500 mg (1 mg/kg) intramuscularly injected 2000.10.2, individual Elk 1-4) was “stimulated in appetite; also recorded: Stimulating appetite” and the “Status After: violence” value ([2]; elk stags 500 kg, violent before, 500 mg (1 mg/kg) intramuscularly injected 2000.10.2, individual Elk 1-4) was “less violent; also recorded: Alleviating violence”. For the same compound, the intake of feed ([2]; elk stags 500 kg, 1.0 mg/kg intramuscularly injected) was “increasing the intake of feed”, the appetite after injection [2, 11] was “stimulated in appetite” and the intake of feed [2, 11] was “increasing the intake of feed”. The violence after injection [2, 11] was “less violent”.
